pEC50: −log10 of the molar value. Where a name gives a salt, the structure may show the parent alone.

The pEC50 is the negative decadic logarithm of the EC50, by convention in mol/L.

For the assay, the target named is T1, hNPRA (Homo sapiens, UniProt P16066).
T1 construct: expressed in transfected cells
T1 sequence (P16066 33-1061): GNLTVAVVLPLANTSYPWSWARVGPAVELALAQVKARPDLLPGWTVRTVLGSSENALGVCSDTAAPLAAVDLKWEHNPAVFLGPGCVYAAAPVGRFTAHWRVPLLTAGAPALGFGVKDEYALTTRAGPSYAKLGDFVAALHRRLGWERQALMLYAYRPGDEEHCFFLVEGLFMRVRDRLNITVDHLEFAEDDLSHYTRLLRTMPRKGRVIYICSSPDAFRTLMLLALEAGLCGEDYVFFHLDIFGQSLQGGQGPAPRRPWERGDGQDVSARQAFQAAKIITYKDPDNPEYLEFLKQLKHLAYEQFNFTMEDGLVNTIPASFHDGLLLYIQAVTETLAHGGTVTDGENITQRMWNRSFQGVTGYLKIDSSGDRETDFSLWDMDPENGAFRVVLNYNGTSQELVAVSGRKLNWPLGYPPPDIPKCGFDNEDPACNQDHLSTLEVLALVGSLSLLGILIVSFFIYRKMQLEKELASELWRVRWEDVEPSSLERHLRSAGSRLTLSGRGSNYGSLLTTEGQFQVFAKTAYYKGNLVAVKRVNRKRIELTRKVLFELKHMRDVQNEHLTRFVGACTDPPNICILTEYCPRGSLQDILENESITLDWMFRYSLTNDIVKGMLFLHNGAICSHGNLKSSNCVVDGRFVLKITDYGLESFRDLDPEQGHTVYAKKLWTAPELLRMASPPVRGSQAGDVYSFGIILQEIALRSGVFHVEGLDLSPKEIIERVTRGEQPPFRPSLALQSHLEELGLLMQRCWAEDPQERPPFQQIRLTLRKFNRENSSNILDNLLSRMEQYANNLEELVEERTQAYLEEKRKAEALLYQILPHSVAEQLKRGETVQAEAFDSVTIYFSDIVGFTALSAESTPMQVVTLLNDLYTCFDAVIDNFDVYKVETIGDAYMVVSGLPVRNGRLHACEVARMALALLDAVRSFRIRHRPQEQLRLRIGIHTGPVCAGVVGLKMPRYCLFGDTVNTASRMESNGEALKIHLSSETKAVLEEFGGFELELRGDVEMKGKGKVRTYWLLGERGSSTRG
Briefly: NPRA Functional Cell Assay (cGMP HTRF, NPRA HEK JumpIn stable cells). The note with it: cGMP production, 1 hour at 37° C., 10-point dose response. It counts as cell-based. In a few lines:
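cGMP HTRF read-out after 1 hour compound treatment at 37° C. of human NPRA-expressing HEK JumpIn cells, 1500 cells/well, in buffer with phosphodiesterase inhibitors IBMX and RO20 (100 uM each). Signal converted to [cGMP] by calibration curve; EC50s fitted by 4-parameter logistic; 50 nM h-ANP as positive response.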
Background: TR-FRET usually uses a lanthanide donor and a delayed reading to cut background.
As for `CN1CC(NC(=O)c2cccc([C@@H](CCN3CCC(c4ccc(C(=O)O)cc4)CC3)NC(=O)c3nc4cc5c(nc4s3)CC[C@H](C(C)(C)C)C5)c2)C1` (racemic) [Example 105, 4-[1-[rac-(3R)-3-[3-[(1-methylazetidin-1-ium-3-yl)carbamoyl]phenyl]-3-[rac-(7S)-7-tert-butyl-5,6,7,8-tetrahydrothiazolo [5,4-b]quinoline-2-carbonyl]amino]propyl]-4-piperidyl]benzoic acid; 2,2,2-trifluoroacetate], the pEC50 was 6.50.

For the compound `CN1CC(NC(=O)c2cccc([C@@H](CCN3CCC[C@H]3CC(=O)O)NC(=O)c3nc4cc5c(nc4s3)CC[C@H](C(C)(C)C)C5)c2)C1` (racemic) [Example 106, 2-[rac-(2S)-1-[rac-(3R)-3-[3-[(1-methylazetidin-1-ium-3-yl)carbamoyl]phenyl]-3-[rac-(7S)-7-tert-butyl-5,6,7,8-tetrahydrothiazolo[5,4-b]quinoline-2-carbonyl]amino]propyl] pyrrolidin-2-yl]acetic acid; 2,2,2-trifluoroacetate], the pEC50 was 6.28. Consider `CN1CC(NC(=O)c2cccc([C@@H](CCN3CCC(c4cccc(C(=O)O)c4)CC3)NC(=O)c3nc4cc5c(nc4s3)CC[C@H](C(C)(C)C)C5)c2)C1` (racemic) [Example 107, 3-[1-[rac-(3R)-3-[3-[(1-methylazetidin-1-ium-3-yl)carbamoyl]phenyl]-3-[rac-(7S)-7-tert-butyl-5,6,7,8-tetrahydrothiazolo[5,4-b]quinoline-2-carbonyl]amino]propyl]-4-piperidyl]benzoic acid; 2,2,2-trifluoroacetate], for which the pEC50 was 6.28. `CN1CC(NC(=O)c2cccc([C@@H](CCN3CC4C(C3)C4C(=O)O)NC(=O)c3nc4cc5c(nc4s3)CC[C@H](C(C)(C)C)C5)c2)C1` (mixture of isomers) [Example 108, 3-[rac-(3R)-3-[3-[(1-methylazetidin-1-ium-3-yl)carbamoyl]phenyl]-3-[[rac-(7S)-7-tert-butyl-5,6,7,8-tetrahydrothiazolo [5,4-b]quinoline-2-carbonyl]amino]propyl]-3-azabicyclo[3.1.0]hexane-6-carboxylic acid; 2,2,2-trifluoroacetate] showed a pEC50 of 6.21. `COC1CCN(CC[C@@H](NC(=O)c2nc3cc4c(nc3s2)CC[C@H](C(C)(C)C)C4)c2cccc(C(=O)NC3CN(C)C3)c2)CC1` (racemic) [Example 109, rac-(7S)-7-tert-butyl-N-[rac-(1R)-3-(4-methoxy-1-piperidyl)-1-[3-[(1-methylazetidin-1-ium-3-yl)carbamoyl]phenyl]propyl]-5,6,7,8-tetrahydrothiazolo[5,4-b] quinoline-2-carboxamide; 2,2,2-trifluoroacetate] had a pEC50 of 6.20.

Regarding `COC(=O)CC1CCN(CC[C@@H](NC(=O)c2nc3cc4c(nc3s2)CC[C@H](C(C)(C)C)C4)c2cccc(C(=O)NC3CN(C)C3)c2)CC1` (racemic) [Example 110, methyl 2-[1-[rac-(3R)-3-[3-{(1-methylazetidin-1-ium-3-yl)carbamoyl]phenyl]-3-[rac-(7S)-7-tert-butyl-5,6,7,8-tetrahydrothiazolo[5,4-b]quinoline-2-carbonyl]amino]propyl]-4-piperidyl]acetate; 2,2,2-trifluoroacetate], the pEC50 was 6.20. `CN(CCC(=O)O)CC[C@@H](NC(=O)c1nc2cc3c(nc2s1)CC[C@H](C(C)(C)C)C3)c1cccc(C(=O)NC2CN(C)C2)c1` (racemic) [Example 111, 3-[methyl-[rac-(3R)-3-[3-[(1-methylazetidin-1-ium-3-yl)carbamoyl]phenyl]-3-[[rac-(7S)-7-tert-butyl-5,6,7,8-tetrahydrothiazolo[5,4-b]quinoline-2-carbonyl]amino]propyl]amino] propanoic acid; 2,2,2-trifluoroacetate] had a pEC50 of 6.19. The compound `CN1CC(NC(=O)c2cccc([C@@H](CCN3CCC(C(=O)O)C3)NC(=O)c3nc4cc5c(nc4s3)CC[C@H](C(C)(C)C)C5)c2)C1` (mixture of isomers) [Example 112, rac-(3R)-1-[rac-(3R)-3-[3-[(1-methylazetidin-1-ium-3-yl)carbamoyl]phenyl]-3-[rac-(7S)-7-tert-butyl-5,6,7,8-tetrahydrothiazolo[5,4-b]quinoline-2-carbonyl]amino]propyl]pyrrolidine-3-carboxylic acid; 2,2,2-trifluoroacetate] gave a pEC50 of 6.12. `CN1CC(NC(=O)c2cccc([C@@H](CCN3CC[C@H](C(=O)O)C3)NC(=O)c3nc4cc5c(nc4s3)CC[C@H](C(C)(C)C)C5)c2)C1` (racemic) [Example 113, rac-(3S)-1-[rac-(3R)-3-[3-[(1-methylazetidin-1-ium-3-yl)carbamoyl]phenyl]-3-[[rac-(7S)-7-tert-butyl-5,6,7,8-tetrahydrothiazolo[5,4-b]quinoline-2-carbonyl]amino]propyl]pyrrolidine-3-carboxylic acid; 2,2,2-trifluoroacetate] gave a pEC50 of 6.03. `COC(=O)C1CCN(CC[C@@H](NC(=O)c2nc3cc4c(nc3s2)CC[C@H](C(C)(C)C)C4)c2cccc(C(=O)NC3CN(C)C3)c2)CC1` (racemic) [Example 114, methyl 1-[rac-(3R)-3-[3-[(1-methylazetidin-1-ium-3-yl)carbamoyl]phenyl]-3-[[rac-(7S)-7-tert-butyl-5,6,7,8-tetrahydrothiazolo[5,4-b]quinoline-2-carbonyl]amino]propyl] piperidine-4-carboxylate; 2,2,2-trifluoroacetate] showed a pEC50 of 6.17. On to `CN1CC(NC(=O)c2cccc([C@@H](CCNCC(=O)O)NC(=O)c3nc4cc5c(nc4s3)CC[C@H](C(C)(C)C)C5)c2)C1` (racemic) [Example 115, carboxymethyl-[rac-(3R)-3-[3-[(1-methylazetidin-3-yl)carbamoyl]phenyl]-3-[rac-(7S)-7-tert-butyl-5,6,7,8-tetrahydrothiazolo[5,4-b]quinoline-2-carbonyl]amino]propyl]ammonium; 2,2,2-trifluoroacetate], for which the pEC50 was 5.85. `CC(C)(C)[C@H]1CCc2nc3sc(C(=O)N[C@H](CCN4CCC(O)CC4)c4cccc(N5CC6(CCNCC6)OC5=O)c4)nc3cc2C1` (racemic) [Example 116, rac-(7S)-7-tert-butyl-N-[rac-(1R)-3-(4-hydroxy-1-piperidyl)-1-[3-(2-oxo-1-oxa-3-aza-8-azoniaspiro [4.5]decan-3-yl)phenyl]propyl]-5,6,7,8-tetrahydrothiazolo[5,4-b] quinoline-2-carboxamide; 2,2,2-trifluoroacetate] had a pEC50 of 6.21. Compound `CC(C)(C)[C@H]1CCc2nc3sc(C(=O)N[C@H](CCN4CCC(O)CC4)c4cccc(N5CCNC5=O)c4)nc3cc2C1` (racemic) [Example 117, rac-(7S)-7-tert-butyl-N-[rac-(1R)-3-(4-hydroxypiperidin-1-ium-1-yl)-1-[3-(2-oxoimidazolidin-1-yl)phenyl]propyl]-5,6,7,8-tetrahydrothiazolo[5,4-b] quinoline-2-carboxamide; 2,2,2-trifluoroacetate] had a pEC50 of 6.10. Compound `CC(C)(C)[C@H]1CCc2nc3sc(C(=O)N[C@H](CCN4CCC(O)CC4)c4cccc(NC(=O)C5CCNC5)c4)nc3cc2C1` (mixture of isomers) [Example 118, rac-(7S)-7-tert-butyl-N-[rac-(1R)-3-(4-hydroxy-1-piperidyl)-1-[3-(pyrrolidin-1-ium-3-carbonylamino)phenyl]propyl]-5,6,7,8-tetrahydrothiazolo[5,4-b] quinoline-2-carboxamide; 2,2,2 trifluoroacetate] had a negative-log EC50 (pEC50) of 6.01. On to `CC(C)(C)[C@H]1CCc2nc3sc(C(=O)N[C@H](CCN4CCC(O)CC4)c4cccc(NC(=O)CCN)c4)nc3cc2C1` (racemic) [Example 119, [3-oxo-3-[3-[rac-(1R)-3-(4-hydroxy-1-piperidyl)-1-[[rac-(7S)-7-tert-butyl-5,6,7,8-tetrahydrothiazolo [5,4-b]quinoline-2-carbonyl]amino]propyl]anilino]propyl]ammonium; 2,2,2-trifluoroacetate], for which the pEC50 was 5.92. The same measure for `CC(C)(C)[C@H]1CCc2nc3sc(C(=O)N[C@H](CCN4CCC(O)CC4)c4cccc(N5CCOC5=O)c4)nc3cc2C1` (racemic) [Example 120, rac-(7S)-7-tert-butyl-N-[rac-(1R)-3-(4-hydroxypiperidin-1-ium-1-yl)-1-[3-(2-oxooxazolidin-3-yl)phenyl]propyl]-5,6,7,8-tetrahydrothiazolo[5,4-b] quinoline-2-carboxamide; 2,2,2-trifluoroacetate]: 5.78.

(Values after patent US12440496B2, “Natriuretic peptide receptor a agonists useful for the treatment of cardiometabolic diseases, kidney disease and diabetes” (Merck Sharp & Dohme LLC, priority 2019, dated 2025).)
